# Data: patent US7387997B2 (University of Utah, priority 2004, dated 2008)
# Where “and” joins values, the source holds several entries; their conditions need not be identical. Identical values can stand only once. Entries after “also recorded” stand apart in the source; their conditions may differ. Where a SMILES comes first, the peptide text is derived from it. Bridges are numbered along the chain shown (N, C = ends).
# Legend:
# [1] = molecular target: T1, Rat α3β2 nAChR (Rattus norvegicus, UniProt P04757+P12390); experiment: cell-based; type: cell-based
# T1 construct: expressed in transfected cells; host or cells: Xenopus laevis oocytes, cRNA injected
# [2] = molecular target: T2, Rat α6/α3β2β3 nAChR (Rattus norvegicus, UniProt P04757+P12390+P43143); experiment: cell-based; type: cell-based
# T2 construct: amino acids 1 to 237 of the rat α6 subunit protein; amino acids 233 to 499 of the rat α3 subunit protein; expressed in transfected cells; host or cells: Xenopus laevis oocytes, cRNA injected (pT7TS/rα6α3 for the chimera)
# [3] = molecular target: T3, α6/α3β2 nAChR (Rattus norvegicus, UniProt P04757+P12390+P43143); experiment: cell-based
# T3 construct: amino acids 1 to 237 of the rat α6 subunit protein; amino acids 233 to 499 of the rat α3 subunit protein; expressed in transfected cells; host or cells: Xenopus laevis oocytes, cRNA injected
# [4] = molecular target: T4, α6/α3β4 nAChR (Rattus norvegicus, UniProt P04757+P12392+P43143); experiment: cell-based
# T4 construct: amino acids 1 to 237 of the rat α6 subunit protein; amino acids 233 to 499 of the rat α3 subunit protein; expressed in transfected cells; host or cells: Xenopus laevis oocytes, cRNA injected
# [5] = molecular target: T5, rat α3β4 nAChR (Rattus norvegicus, UniProt P04757+P12392); experiment: cell-based; type: cell-based
# T5 construct: expressed in transfected cells; host or cells: Xenopus laevis oocytes, cRNA injected
# [6] = molecular target: T6, α2β2 nAChR (Rattus norvegicus, UniProt P12389+P12390); experiment: cell-based; type: cell-based
# T6 construct: expressed in transfected cells; host or cells: Xenopus laevis oocytes, cRNA injected
# [7] = molecular target: T7, α2β4 nAChR (Rattus norvegicus, UniProt P12389+P12392); experiment: cell-based; type: cell-based
# T7 construct: expressed in transfected cells; host or cells: Xenopus laevis oocytes, cRNA injected
# [8] = molecular target: T8, α4β4 nAChR (Rattus norvegicus, UniProt P09483+P12392); experiment: cell-based; type: cell-based
# T8 construct: expressed in transfected cells; host or cells: Xenopus laevis oocytes, cRNA injected
# [9] = molecular target: T9, α7 nAChR (Rattus norvegicus, UniProt Q05941); experiment: cell-based; type: cell-based
# T9 construct: expressed in transfected cells; host or cells: Xenopus laevis oocytes, cRNA injected
# [10] = molecular target: Mouse CNS α-MII Site (putative α6β2* nAChRs); type: binding
# [11] = molecular target: T10, rat α6β4 nAChR (Rattus norvegicus, UniProt P12392+P43143); type: cell-based
# T10 construct: expressed in transfected cells; host or cells: Xenopus laevis oocytes, cRNA injected (50 ng each)
# [12] = molecular target: T11, α4β2 nAChR (Rattus norvegicus, UniProt P09483+P12390); type: cell-based
# T11 construct: expressed in transfected cells; host or cells: Xenopus laevis oocytes, cRNA injected
# T11 sequence (P09483 31-630 limits assumed): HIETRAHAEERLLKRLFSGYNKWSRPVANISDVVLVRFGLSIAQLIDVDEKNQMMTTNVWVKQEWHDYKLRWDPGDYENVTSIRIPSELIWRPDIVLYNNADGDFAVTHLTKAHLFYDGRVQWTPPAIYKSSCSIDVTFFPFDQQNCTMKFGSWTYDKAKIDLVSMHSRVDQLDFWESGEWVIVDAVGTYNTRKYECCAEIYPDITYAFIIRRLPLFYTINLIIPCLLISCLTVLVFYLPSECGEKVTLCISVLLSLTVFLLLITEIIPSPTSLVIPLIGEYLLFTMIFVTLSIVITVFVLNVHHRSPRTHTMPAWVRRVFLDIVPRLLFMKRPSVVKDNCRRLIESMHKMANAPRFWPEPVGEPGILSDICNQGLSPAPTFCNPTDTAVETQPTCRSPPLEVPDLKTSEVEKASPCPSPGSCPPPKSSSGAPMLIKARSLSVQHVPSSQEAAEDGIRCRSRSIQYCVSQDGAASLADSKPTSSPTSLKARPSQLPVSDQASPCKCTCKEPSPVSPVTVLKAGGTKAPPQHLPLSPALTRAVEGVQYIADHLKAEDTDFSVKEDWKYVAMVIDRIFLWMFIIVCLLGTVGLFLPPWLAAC
# T11 sequence (P12390 25-500 limits assumed): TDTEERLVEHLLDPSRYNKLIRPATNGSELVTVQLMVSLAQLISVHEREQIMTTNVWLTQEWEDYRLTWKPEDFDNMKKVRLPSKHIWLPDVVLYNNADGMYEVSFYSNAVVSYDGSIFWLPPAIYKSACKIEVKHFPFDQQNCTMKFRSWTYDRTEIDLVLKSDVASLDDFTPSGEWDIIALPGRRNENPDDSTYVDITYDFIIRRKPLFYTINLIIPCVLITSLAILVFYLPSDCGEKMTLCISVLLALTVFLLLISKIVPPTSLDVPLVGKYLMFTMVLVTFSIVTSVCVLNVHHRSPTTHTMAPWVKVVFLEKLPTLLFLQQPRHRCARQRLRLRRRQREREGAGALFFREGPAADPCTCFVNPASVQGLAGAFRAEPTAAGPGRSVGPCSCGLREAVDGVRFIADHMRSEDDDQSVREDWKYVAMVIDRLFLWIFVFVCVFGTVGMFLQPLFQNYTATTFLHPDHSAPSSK
# T7 sequence (P12389 28-511 limits assumed): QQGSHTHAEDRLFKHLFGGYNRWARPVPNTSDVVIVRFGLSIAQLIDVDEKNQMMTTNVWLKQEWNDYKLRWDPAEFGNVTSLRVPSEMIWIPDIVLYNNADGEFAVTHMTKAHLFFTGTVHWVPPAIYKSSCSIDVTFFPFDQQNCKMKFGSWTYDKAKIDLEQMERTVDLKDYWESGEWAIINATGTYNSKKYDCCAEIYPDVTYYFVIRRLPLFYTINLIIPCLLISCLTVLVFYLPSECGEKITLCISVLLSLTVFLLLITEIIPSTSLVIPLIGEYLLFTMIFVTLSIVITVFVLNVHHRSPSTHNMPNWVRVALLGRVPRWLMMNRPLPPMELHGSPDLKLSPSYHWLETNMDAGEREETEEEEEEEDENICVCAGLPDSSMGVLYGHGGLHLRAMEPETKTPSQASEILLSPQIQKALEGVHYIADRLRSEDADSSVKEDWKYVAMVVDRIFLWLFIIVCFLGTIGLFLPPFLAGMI
# T7 sequence (P12392 21-495 limits assumed): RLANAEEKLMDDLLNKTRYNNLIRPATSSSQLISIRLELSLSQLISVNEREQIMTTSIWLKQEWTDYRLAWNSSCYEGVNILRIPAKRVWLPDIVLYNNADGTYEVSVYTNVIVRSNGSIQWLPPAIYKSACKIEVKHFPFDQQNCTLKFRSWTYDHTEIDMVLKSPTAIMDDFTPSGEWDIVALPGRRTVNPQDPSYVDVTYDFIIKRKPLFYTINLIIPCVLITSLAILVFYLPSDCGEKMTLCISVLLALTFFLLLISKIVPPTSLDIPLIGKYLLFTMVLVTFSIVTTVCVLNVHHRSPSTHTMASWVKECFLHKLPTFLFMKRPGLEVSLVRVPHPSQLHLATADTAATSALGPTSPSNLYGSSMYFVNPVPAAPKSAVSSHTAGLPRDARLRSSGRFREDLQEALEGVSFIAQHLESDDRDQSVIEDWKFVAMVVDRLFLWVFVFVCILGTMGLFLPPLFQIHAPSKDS
# T6 sequence (P12389 28-511 limits assumed): as the sequence (P12389 28-511 limits assumed) above
# T6 sequence (P12390 25-500 limits assumed): as the sequence (P12390 25-500 limits assumed) above
# T5 sequence (P04757 26-499 limits assumed): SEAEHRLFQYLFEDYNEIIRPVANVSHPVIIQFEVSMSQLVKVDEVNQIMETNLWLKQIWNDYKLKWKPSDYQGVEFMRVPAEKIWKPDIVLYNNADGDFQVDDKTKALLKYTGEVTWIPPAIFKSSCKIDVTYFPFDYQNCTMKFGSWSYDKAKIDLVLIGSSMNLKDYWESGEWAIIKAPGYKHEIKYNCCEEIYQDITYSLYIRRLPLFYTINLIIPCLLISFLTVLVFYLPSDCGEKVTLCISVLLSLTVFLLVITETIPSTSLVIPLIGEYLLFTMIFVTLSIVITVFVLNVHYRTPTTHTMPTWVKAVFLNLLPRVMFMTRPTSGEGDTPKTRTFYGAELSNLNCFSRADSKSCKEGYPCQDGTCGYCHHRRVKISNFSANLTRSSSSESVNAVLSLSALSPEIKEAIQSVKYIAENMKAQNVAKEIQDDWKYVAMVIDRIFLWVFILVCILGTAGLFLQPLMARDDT
# T5 sequence (P12392 21-495 limits assumed): as the sequence (P12392 21-495 limits assumed) above
# T1 sequence (P04757 26-499 limits assumed): as the sequence (P04757 26-499 limits assumed) above
# T1 sequence (P12390 25-500 limits assumed): as the sequence (P12390 25-500 limits assumed) above
# T9 sequence (Q05941 23-502 limits assumed): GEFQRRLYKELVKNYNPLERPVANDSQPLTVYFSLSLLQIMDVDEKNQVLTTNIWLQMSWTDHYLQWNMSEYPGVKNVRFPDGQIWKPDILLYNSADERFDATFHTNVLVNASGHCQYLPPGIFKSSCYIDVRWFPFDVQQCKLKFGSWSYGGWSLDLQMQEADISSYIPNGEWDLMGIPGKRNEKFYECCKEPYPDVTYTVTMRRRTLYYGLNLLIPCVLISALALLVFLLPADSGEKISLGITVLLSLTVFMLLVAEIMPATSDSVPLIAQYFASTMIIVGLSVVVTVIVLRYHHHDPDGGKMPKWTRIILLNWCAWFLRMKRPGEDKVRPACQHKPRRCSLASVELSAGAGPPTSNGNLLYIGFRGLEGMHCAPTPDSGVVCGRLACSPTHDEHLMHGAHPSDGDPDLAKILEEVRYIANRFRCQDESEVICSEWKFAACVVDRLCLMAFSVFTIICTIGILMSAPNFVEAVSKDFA
# T8 sequence (P09483 31-630 limits assumed): as the sequence (P09483 31-630 limits assumed) above
# T8 sequence (P12392 21-495 limits assumed): as the sequence (P12392 21-495 limits assumed) above
# T3 sequence (P43143 31-237 limits assumed): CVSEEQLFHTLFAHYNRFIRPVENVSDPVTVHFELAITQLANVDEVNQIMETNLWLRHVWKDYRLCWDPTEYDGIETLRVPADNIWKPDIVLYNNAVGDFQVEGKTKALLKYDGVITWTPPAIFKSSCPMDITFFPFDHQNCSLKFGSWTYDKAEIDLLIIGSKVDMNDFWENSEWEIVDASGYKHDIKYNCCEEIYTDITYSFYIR
# T3 sequence (P04757 233-499 limits assumed): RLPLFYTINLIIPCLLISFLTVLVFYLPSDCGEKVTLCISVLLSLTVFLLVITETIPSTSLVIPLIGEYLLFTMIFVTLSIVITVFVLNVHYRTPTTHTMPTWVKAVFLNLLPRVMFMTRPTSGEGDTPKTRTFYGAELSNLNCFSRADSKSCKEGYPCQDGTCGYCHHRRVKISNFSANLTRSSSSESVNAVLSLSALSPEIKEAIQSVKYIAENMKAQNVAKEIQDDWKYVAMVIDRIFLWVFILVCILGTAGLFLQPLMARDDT
# T3 sequence (P12390 25-500 limits assumed): as the sequence (P12390 25-500 limits assumed) above
# T4 sequence (P43143 31-237 limits assumed): as the sequence (P43143 31-237 limits assumed) above
# T4 sequence (P04757 233-499 limits assumed): as the sequence (P04757 233-499 limits assumed) above
# T4 sequence (P12392 21-495): as the sequence (P12392 21-495 limits assumed) above
# T2 sequence (P43143 31-237 limits assumed): as the sequence (P43143 31-237 limits assumed) above
# T2 sequence (P04757 233-499 limits assumed): as the sequence (P04757 233-499 limits assumed) above
# T2 sequence (P12390 25-500 limits assumed): as the sequence (P12390 25-500 limits assumed) above
# T10 sequence (P43143 31-493): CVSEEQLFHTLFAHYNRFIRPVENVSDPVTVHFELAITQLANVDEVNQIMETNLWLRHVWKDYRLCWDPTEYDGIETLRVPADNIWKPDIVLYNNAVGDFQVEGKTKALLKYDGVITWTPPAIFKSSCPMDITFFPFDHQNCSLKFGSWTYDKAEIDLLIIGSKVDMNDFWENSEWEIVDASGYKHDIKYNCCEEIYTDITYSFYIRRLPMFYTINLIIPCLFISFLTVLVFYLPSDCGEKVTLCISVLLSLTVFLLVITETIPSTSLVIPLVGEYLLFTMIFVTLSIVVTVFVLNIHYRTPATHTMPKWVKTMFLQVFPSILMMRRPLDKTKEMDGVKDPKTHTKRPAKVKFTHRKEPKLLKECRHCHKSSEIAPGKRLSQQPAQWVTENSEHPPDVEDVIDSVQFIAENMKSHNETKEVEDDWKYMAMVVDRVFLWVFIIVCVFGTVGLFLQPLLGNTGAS
# T10 sequence (P12392 21-495): as the sequence (P12392 21-495 limits assumed) above
structure (smiles),measurement,setting,value
"CC(C)C[C@@H]1NC(=O)[C@H](Cc2c[nH]cn2)NC(=O)[C@@H]2CSSC[C@H](NC(=O)CN)C(=O)N[C@@H](CSSC[C@@H](C(N)=O)NC(=O)[C@H](CC(C)C)NC(=O)[C@H](CC(N)=O)NC(=O)[C@H](CO)NC(=O)[C@H](Cc3c[nH]cn3)NC(=O)[C@H](C)NC1=O)C(=O)N[C@@H](CO)C(=O)N[C@@H](CC(N)=O)C(=O)N1CCC[C@H]1C(=O)N[C@@H](C(C)C)C(=O)N2 [MII[E11A]] (H-GCCSNPVCHLAHSNLC-NH2; disulfide 2-8, 3-16)",IC50,[1],8.72 nM
same,Ratio IC50 α3β2/IC50 α6/α3β2β3,[1],54.5
same,IC50,[2],0.16 nM
same,"Ratio nAChR subtype IC50/α6/α3β2β3 IC50, α6/α3β2β3",[2],1.00
same,IC50,[3],0.154 nM
same,"Ratio nAChR subtype IC50/α6/α3β2β3 IC50, α6/α3β2",[3],0.962
same,IC50,[4],6.44 nM
same,"Ratio nAChR subtype IC50/α6/α3β2β3 IC50, α6/α3β4",[4],40.3
same,IC50,[5],2100 nM
same,"Ratio nAChR subtype IC50/α6/α3β2β3 IC50, α3β4",[5],"13,100"
same,IC50,[6],> 10 µM
same,"Ratio nAChR subtype IC50/α6/α3β2β3 IC50, α2β2",[6],">62,500"
same,IC50,[7],> 10 µM
same,"Ratio nAChR subtype IC50/α6/α3β2β3 IC50, α2β4",[7],">62,500"
same,IC50,[8],> 10 µM
same,"Ratio nAChR subtype IC50/α6/α3β2β3 IC50, α4β4",[8],">62,500"
same,IC50,[9],1050 nM
same,"Ratio nAChR subtype IC50/α6/α3β2β3 IC50, α7",[9],"6,570"
same,Ki,[10],0.27 nM
"CC(C)C[C@@H]1NC(=O)[C@H](C)NC(=O)[C@@H]2CSSC[C@H](NC(=O)CN)C(=O)N[C@@H](CSSC[C@@H](C(N)=O)NC(=O)[C@H](C)NC(=O)[C@H](CC(N)=O)NC(=O)[C@H](CO)NC(=O)[C@H](Cc3c[nH]cn3)NC(=O)[C@H](CCC(=O)O)NC1=O)C(=O)N[C@@H](CO)C(=O)N[C@@H](CC(N)=O)C(=O)N1CCC[C@H]1C(=O)N[C@@H](C(C)C)C(=O)N2 [MII[H9A; L15A]] (H-GCCSNPVCALEHSNAC-NH2; disulfide 2-8, 3-16)","Hill slope, α3β2",[1],0.48±0.04
same,"Hill slope (nH), α6β4",[11],0.60±0.09
same,"Hill slope (nH), α3β4",[5],0.75±0.1
same,activity at α3β4 (in words),[5],low or no activity; also recorded: little or no activity
same,"ACh response, percentage of control, Rα2β2",[6],102 ± 1.4 % of control and 103 ± 1.9 % of control
same,activity at α2β2 (in words),[6],low or no activity; also recorded: little or no activity
same,"ACh response, percentage of control, Rα2β4",[7],96.7 ± 3.2 % of control and 95.9 ± 2.3 % of control
same,activity at α2β4 (in words),[7],low or no activity; also recorded: little or no activity
same,"ACh response, percentage of control, Rα4β2",[12],98.5 ± 4.4 % of control and 101 ± 2.5 % of control
same,activity at α4β2 (in words),[12],low or no activity; also recorded: little or no activity
same,"ACh response, percentage of control, Rα4β4",[8],99.0 ± 4.0 % of control and 100 ± 5.6 % of control
same,activity at α4β4 (in words),[8],low or no activity; also recorded: little or no activity
same,"ACh response, percentage of control, Rα7",[9],61.4 ± 2.3 % of control and 100 ± 1.5 % of control
same,activity at α7 (in words),[9],low or no activity; also recorded: little or no activity
same,Ki,[10],3.3 nM
